# From ChEMBL document CHEMBL1157538, “Discovery of a potent, selective, and orally bioavailable c-Met inhibitor: 1-(2-hydroxy-2-methylpropyl)-N-(5-(7-methoxyquinolin-4-yloxy)pyridin-2-yl)-5-methyl-3-oxo-2-phenyl-2,3-dihydro-1H-pyrazole-4-carboxamide (AMG 458)” (J Med Chem, 2008)
# Columns and labels:
# [1] = Clearance in BALB/c mouse at 1 mg/kg, iv or 10 mg/kg, po; format: ADME, organism-based; settings: in vivo
# [2] = Clearance in Beagle dog at 1 mg/kg, iv or 10 mg/kg, po; format: ADME, organism-based, Canis lupus familiaris; settings: in vivo
# [3] = Half life in Sprague-Dawley rat at 1 mg/kg, iv or 10 mg/kg, po; format: ADME, organism-based; settings: in vivo
# [4] = Intrinsic clearance in Beagle dog liver microsome; format: ADME, Canis lupus familiaris; settings: liver microsomes
# [5] = Clearance in cynomolgus monkey at 1 mg/kg, iv or 10 mg/kg, po; format: ADME, organism-based, Macaca fascicularis; settings: in vivo
# [6] = biological target: T1, Hepatocyte growth factor receptor (Homo sapiens, UniProt P08581); experiment: Inhibition of HGF-mediated c-Met phosphorylation in human PC3 cells; format: cell-based, PC-3
# [7] = Half life in cynomolgus monkey at 1 mg/kg, iv or 10 mg/kg, po; format: ADME, organism-based, Macaca fascicularis; settings: in vivo
# [8] = Oral bioavailability in cynomolgus monkey at 10 mg/kg; format: ADME, organism-based, Macaca fascicularis; settings: in vivo
# [9] = biological target: Hepatocyte growth factor receptor (Homo sapiens, UniProt P08581, H1094R); experiment: Inhibition c-Met H1094R mutant by HTRF assay
# [10] = Oral bioavailability in Beagle dog at 10 mg/kg; format: ADME, organism-based, Canis lupus familiaris; settings: in vivo
# [11] = biological target: Hepatocyte growth factor receptor (Homo sapiens, UniProt P08581, Y1230H); experiment: Inhibition c-Met Y1230H mutant by HTRF assay
# [12] = biological target: T2, Hepatocyte growth factor receptor (Mus musculus, UniProt P16056); experiment: Inhibition of HGF-mediated c-Met phosphorylation in mouse CT26 cells; format: cell-based
# [13] = Oral bioavailability in BALB/c mouse at 10 mg/kg; format: ADME, organism-based; settings: in vivo
# [14] = Permeability from apical to basolateral side of human Caco-2 cell monolayer; format: ADME, cell-based; settings: read-out: permeability
# [15] = test system: NIH3T3; experiment: Antitumor activity in TPR-Met expressing […] NIH3T3 cells xenografted in po dosed mouse assessed as tumor growth inhibition after 24 hrs; format: functional
# [16] = Apparent permeability across pig LLC-PK1 cells; format: ADME, cell-based, Sus scrofa; settings: read-out: permeability
# [17] = biological target: T1, Hepatocyte growth factor receptor; experiment: Inhibition of human c-Met by HTRF assay
# [18] = biological target: Tyrosine-protein kinase Fgr (Homo sapiens, UniProt P09769); experiment: Inhibition of FGR
# [19] = biological target: Tyrosine-protein kinase Fes/Fps (Homo sapiens, UniProt P07332); experiment: Inhibition of FES
# [20] = biological target: Tyrosine-protein kinase Blk (Homo sapiens, UniProt P51451); experiment: Inhibition of BLK
# [21] = Inhibition c-Met […] mutant
# [22] = Inhibition of PDGF
# [23] = test system: Mus musculus; experiment: Toxicity in human U87MG cells xenografted CD1 NU/NU mouse assessed as effect on body weight at 30 mg/kg BID for 14 days; format: organism-based, U-87MG ATCC; parameters: dose 30 mg/kg; settings: in vivo, 336 h
# [24] = Clearance in Sprague-Dawley rat at 1 mg/kg, iv or 10 mg/kg, po; format: ADME, organism-based; settings: in vivo
# [25] = Volume of distribution at steady state in BALB/c mouse at 1 mg/kg, iv or 10 mg/kg, po; format: ADME, organism-based; settings: in vivo, read-out: Vdss
# [26] = biological target: T3, Cytoplasmic tyrosine-protein kinase BMX (Homo sapiens, UniProt P51813); experiment: Inhibition of BMX
# T3 sequence (P51813 whole entry): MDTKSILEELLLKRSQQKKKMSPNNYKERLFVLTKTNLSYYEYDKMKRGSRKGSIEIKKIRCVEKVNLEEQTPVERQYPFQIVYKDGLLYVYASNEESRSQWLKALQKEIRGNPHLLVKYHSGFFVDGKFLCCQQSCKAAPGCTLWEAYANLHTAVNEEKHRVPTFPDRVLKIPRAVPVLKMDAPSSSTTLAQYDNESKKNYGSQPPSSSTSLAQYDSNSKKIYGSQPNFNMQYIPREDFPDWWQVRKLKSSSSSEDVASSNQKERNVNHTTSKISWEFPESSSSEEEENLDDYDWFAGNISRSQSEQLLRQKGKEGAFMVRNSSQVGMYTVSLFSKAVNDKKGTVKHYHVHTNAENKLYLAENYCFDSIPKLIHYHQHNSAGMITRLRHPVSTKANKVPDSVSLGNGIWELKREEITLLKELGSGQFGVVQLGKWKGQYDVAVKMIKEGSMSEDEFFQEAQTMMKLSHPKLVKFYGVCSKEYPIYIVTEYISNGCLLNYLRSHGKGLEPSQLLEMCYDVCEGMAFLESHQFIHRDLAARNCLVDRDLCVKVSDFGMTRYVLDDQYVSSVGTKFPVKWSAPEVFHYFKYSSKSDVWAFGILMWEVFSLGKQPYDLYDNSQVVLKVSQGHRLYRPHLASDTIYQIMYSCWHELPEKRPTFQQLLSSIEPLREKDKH
# [27] = Half life in Beagle dog at 1 mg/kg, iv or 10 mg/kg, po; format: ADME, organism-based, Canis lupus familiaris; settings: in vivo
# [28] = Volume of distribution at steady state in Sprague-Dawley rat at 1 mg/kg, iv or 10 mg/kg, po; format: ADME, organism-based; settings: in vivo
# [29] = biological target: Hepatocyte growth factor receptor (Homo sapiens, UniProt P08581, D1228H); experiment: Inhibition c-Met D1228H mutant by HTRF assay
# [30] = biological target: Macrophage colony-stimulating factor 1 receptor (Homo sapiens, UniProt P07333)
# [31] = Terminal half life in BALB/c mouse; format: ADME, organism-based; settings: in vivo, read-out: beta t1/2
# [32] = Oral bioavailability in Sprague-Dawley rat at 10 mg/kg; format: ADME, organism-based; settings: in vivo
# [33] = Antitumor activity in human U87MG cells xenografted orally dosed CD1 NU/NU mouse assessed as tumor growth inhibition after 14 days; format: functional, U-87MG ATCC; settings: U-87 MG, po, 336 h
# [34] = Inhibition of RON
# [35] = Intrinsic clearance in cynomolgus monkey liver microsome; format: ADME, Macaca fascicularis; settings: liver microsomes
# [36] = biological target: T4, Tyrosine-protein kinase ITK/TSK (Homo sapiens, UniProt Q08881); experiment: Inhibition of ITK
# T4 sequence (Q08881 whole entry): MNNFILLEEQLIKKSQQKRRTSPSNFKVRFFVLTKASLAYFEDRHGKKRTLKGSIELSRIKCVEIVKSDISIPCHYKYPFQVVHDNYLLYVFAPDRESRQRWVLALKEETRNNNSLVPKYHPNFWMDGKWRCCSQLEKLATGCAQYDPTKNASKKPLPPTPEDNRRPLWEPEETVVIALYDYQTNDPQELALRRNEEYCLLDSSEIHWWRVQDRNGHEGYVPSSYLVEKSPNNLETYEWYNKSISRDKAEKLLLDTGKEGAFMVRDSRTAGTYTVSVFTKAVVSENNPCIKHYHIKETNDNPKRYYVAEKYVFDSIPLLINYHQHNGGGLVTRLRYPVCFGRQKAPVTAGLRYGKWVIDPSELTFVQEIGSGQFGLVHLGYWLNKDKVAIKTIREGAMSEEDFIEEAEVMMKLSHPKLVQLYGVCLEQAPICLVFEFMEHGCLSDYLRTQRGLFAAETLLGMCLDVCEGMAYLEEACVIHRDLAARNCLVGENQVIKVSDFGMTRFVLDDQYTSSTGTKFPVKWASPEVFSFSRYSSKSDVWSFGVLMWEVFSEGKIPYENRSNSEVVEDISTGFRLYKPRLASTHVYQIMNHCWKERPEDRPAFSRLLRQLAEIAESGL
# [37] = Drug level in po dosed BALB/c mouse plasma after 6 hrs; format: ADME, organism-based
# [38] = Intrinsic clearance in Sprague-Dawley rat liver microsome; format: ADME; settings: liver microsomes
# [39] = test system: Mus musculus; experiment: Inhibition of HGF-mediated c-Met phosphorylation in po dosed BALB/c mouse liver after 6 hrs; format: functional
# [40] = test system: Mus musculus; experiment: Toxicity in human U87MG cells xenografted CD1 NU/NU mouse assessed as effect on body weight at 30 mg/kg and 100 mg/kg, qd for 14 days; format: organism-based, U-87MG ATCC; settings: in vivo, 336 h
# [41] = biological target: Tyrosine-protein kinase Lyn (Homo sapiens, UniProt P07948); experiment: Inhibition of Lyn
# [42] = biological target: T2, Hepatocyte growth factor receptor; experiment: Inhibition of mouse c-Met by HTRF assay
# [43] = Intrinsic clearance in BALB/c mouse liver microsome; format: ADME; settings: liver microsomes
# [44] = Half life in BALB/c mouse at 1 mg/kg, iv or 10 mg/kg, po; format: ADME, organism-based; settings: in vivo
# [45] = Terminal half life in Sprague-Dawley rat; format: ADME, organism-based; settings: in vivo, read-out: beta t1/2
# [46] = biological target: Tyrosine-protein kinase CSK (Homo sapiens, UniProt P41240); experiment: Inhibition of CSK
# [47] = Intrinsic clearance in human liver microsome; format: ADME; settings: liver microsomes
# [48] = Inhibition of Aurora1
# [49] = Volume of distribution at steady state in Beagle dog at 1 mg/kg, iv or 10 mg/kg, po; format: ADME, organism-based, Canis lupus familiaris; settings: in vivo, read-out: Vdss
# [50] = biological target: Hepatocyte growth factor receptor (Homo sapiens, UniProt P08581, M1250T); experiment: Inhibition c-Met M1250T mutant by HTRF assay
# [51] = biological target: T5, Receptor-type tyrosine-protein kinase FLT3 (Homo sapiens, UniProt P36888); experiment: Inhibition of FLT3
# T5 sequence (P36888 whole entry): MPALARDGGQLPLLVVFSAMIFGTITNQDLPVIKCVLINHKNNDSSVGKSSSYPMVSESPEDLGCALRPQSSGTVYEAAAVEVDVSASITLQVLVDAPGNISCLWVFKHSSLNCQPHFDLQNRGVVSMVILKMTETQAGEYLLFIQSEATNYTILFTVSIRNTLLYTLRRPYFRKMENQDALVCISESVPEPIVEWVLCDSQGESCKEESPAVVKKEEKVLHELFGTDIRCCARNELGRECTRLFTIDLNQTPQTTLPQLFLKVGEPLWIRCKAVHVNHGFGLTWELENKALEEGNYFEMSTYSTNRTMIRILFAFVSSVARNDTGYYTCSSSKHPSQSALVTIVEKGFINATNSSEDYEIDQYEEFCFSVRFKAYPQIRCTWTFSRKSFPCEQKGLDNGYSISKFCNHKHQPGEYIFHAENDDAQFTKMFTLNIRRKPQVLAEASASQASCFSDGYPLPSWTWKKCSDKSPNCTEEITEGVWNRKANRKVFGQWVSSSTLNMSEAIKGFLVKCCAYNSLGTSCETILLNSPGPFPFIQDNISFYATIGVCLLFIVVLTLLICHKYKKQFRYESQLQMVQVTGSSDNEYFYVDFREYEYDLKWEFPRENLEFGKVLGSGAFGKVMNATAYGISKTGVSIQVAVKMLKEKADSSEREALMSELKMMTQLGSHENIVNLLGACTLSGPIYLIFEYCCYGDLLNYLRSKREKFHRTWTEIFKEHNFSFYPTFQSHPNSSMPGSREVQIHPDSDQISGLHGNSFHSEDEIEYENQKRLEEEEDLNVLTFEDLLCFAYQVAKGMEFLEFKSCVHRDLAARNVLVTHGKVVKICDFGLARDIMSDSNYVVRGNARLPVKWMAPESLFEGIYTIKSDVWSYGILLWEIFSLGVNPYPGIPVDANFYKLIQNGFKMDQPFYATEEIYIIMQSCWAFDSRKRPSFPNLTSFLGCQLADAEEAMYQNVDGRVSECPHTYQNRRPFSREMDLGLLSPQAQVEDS
# [52] = Volume of distribution at steady state in cynomolgus monkey at 1 mg/kg, iv or 10 mg/kg, po; format: ADME, organism-based, Macaca fascicularis; settings: in vivo, read-out: Vdss
structure (smiles),measurement,setting,value
COc1ccc2c(Oc3ccc(NC(=O)c4c(C)n(CC(C)(C)O)n(-c5ccccc5)c4=O)nc3)ccnc2c1,clearance,[1],2.67 mL/min/kg
same,clearance,[2],5.67 mL/min/kg
same,half-life,[3],1 h
same,microsomal CLint,[4],8 µL/min/mg
same,clearance,[5],1.67 mL/min/kg
same,IC50,[6],60 nM
same,half-life,[7],5.7 h
same,bioavailability,[8],78%
same,Ki,[9],0.5 nM
same,bioavailability,[10],100%
same,Ki,[11],4.5 nM
same,IC50,[12],120 nM
same,bioavailability,[13],100%
same,Papp A→B,[14],32 ×10⁻⁶ cm/s
same,ED50,[15],12 mg/kg
same,ED90,[15],34 mg/kg
same,Papp,[16],27 ×10⁻⁶ cm/s
same,Ki,[17],1.2 nM
same,IC50,[18],328 nM
same,IC50,[19],706 nM
same,IC50,[20],519 nM
same,Ki,[21],1.1 nM
same,IC50,[22],120 nM
same,Activity,[23],Non-toxic
same,clearance,[24],12.2 mL/min/kg
same,Vd,[25],0.31 L/kg
same,IC50,[26],363 nM
same,half-life,[27],2.8 h
same,Vd,[28],0.62 L/kg
same,Ki,[29],2.2 nM
same,IC50,[30],238 nM
same,half-life,[31],< 2 h
same,bioavailability,[32],100%
same,ED50,[33],16 mg/kg
same,ED90,[33],59 mg/kg
same,IC50,[34],8 nM
same,microsomal CLint,[35],8 µL/min/mg
same,IC50,[36],62 nM
same,concentration at 6 h,[37],15 µM
same,microsomal CLint,[38],62 µL/min/mg
same,ED90,[39],30 mg/kg
same,Activity,[40],Non-toxic
same,IC50,[41],506 nM
same,Ki,[42],2 nM
same,microsomal CLint,[43],< 5 µL/min/mg
same,half-life,[44],1.3 h
same,half-life,[45],< 2 h
same,IC50,[46],165 nM
same,microsomal CLint,[47],18 µL/min/mg
same,IC50,[48],280 nM
same,Vd,[49],0.75 L/kg
same,Ki,[50],4.1 nM
same,IC50,[51],391 nM
same,Vd,[52],0.56 L/kg
